Earlier results as cited in patent US8642603B2, “Substituted dihydro and tetrahydro oxazolopyrimidinones, preparation and use thereof” (Sanofi, priority 2007, dated 2014).

How the values were obtained:
[1] = test system: positive and negative symptoms of schizophrenia; details: compared to placebo
[2] = test system: pentylenetetrazole- and picrotoxin-induced seizures; details: in vivo
healthy human subjects = details: pretreatment

SMILES: Cc1c(OCc2cccc(-c3ccc(C(=O)O)cc3)c2)cc2c(c1C)C(=O)C(C1CCCC1)C2 (stereo not shown) [biphenyl-indanone A]
- antipsychotic- and anxiolytic-like effects (mice): antipsychotic- and anxiolytic-like effects

SMILES: CSCC[C@H](N)C(=O)N[C@@]1(C(=O)O)CS(=O)(=O)[C@H]2[C@H](C(=O)O)[C@H]21 [LY2140023]
- positive and negative symptoms of schizophrenia [1]: statistically significant improvements

SMILES: N[C@]1(C(=O)O)[C@H]2[C@@H](C[C@H]1OCc1ccc(Cl)c(Cl)c1)[C@]2(F)C(=O)O [MGS0039]
- antidepressant-like effects (some animal models): dose-dependent antidepressant-like effects

SMILES: N[C@@]1(C(=O)O)CO[C@H]2[C@H](C(=O)O)[C@H]21 [LY379268]
- effect on REM sleep and fast EEG (rat): suppresses rapid eye movement (REM) sleep and fast EEG

SMILES: N[C@H](C(=O)O)c1ccc(C(=O)O)c(O)c1 [(S)-4-carboxy-3-hydroxyphenylglycine]
- protection against audiogenic seizures (DBA/2 mice): protects against audiogenic seizures

SMILES: N[C@@]1(C(=O)O)CC[C@H]2[C@H](C(=O)O)[C@H]21 [LY354740]
- effect on pentylenetetrazole- and picrotoxin-induced seizures [2]: attenuates pentylenetetrazole- and picrotoxin-induced seizures
- effect on disruption of working memory by ketamine (healthy human subjects): attenuation of the disruptive effects
